“And” between values parts separate entries of the source, which are not always exact repeats. Equal entries are not always repeated.

This assay relates to hind paw of mice. Put plainly: Electronic Von-Frey mechanical sensitivity (withdrawal thresholds) after Paclitaxel-induced neuropathic pain. The conditions noted are these: for Withdrawal test, test 1 / Withdrawal test, test 4 / Withdrawal test, test 5 / Withdrawal test, test 2 / Withdrawal test, test 3 / Withdrawal test, test 6: per animal; for Withdrawal test, All group average: 8 mice; for Withdrawal test, Average: average per animal; for Withdrawal test, test 6: additional test. The format is in vivo. As for the experimental part: Mechanical sensitivity was evaluated by measuring the changes in tactile sensitivity in the hind paw of mice, using an Electronic Von-Frey apparatus (EVF). Withdrawal thresholds were measured, using the EVF apparatus, first at baseline (time=0) and then following drug, in a few periods after administration, by applying an accurate force on specific areas of the skin and measuring the needed force for the mouse to lift its paw.
Paclitaxel was utilized for the stimulation of a chemotherapy-induced neuropathic pain. Paclitaxel is anti-cancer chemotherapy drug classified as a “plant alkaloid” and an “antimicrotubule agent”.
Mice were divided into three groups of 8 mice each, as follows: • (a) Group no. 1—Morphine as positive control; • (b) Group no. […] 3—synthetic THC derivative 9-Desmethyl THC.
A portion of Paclitaxel was administered to each mouse by i.p. injection, on days 1, 3, 5 and 7 from the beginning of the experiment. At day 8, withdrawal thresholds were measured first at baseline (time=0), thereafter each mouse received a single portion of a drug substance, at 5 mg/Kg body weight concentration, by oral gavage and measurements took place.
The first checking point was 1 hour after administration of each drug. For every mouse, its threshold for the pain perception in which it removes its hind paw after the stabbing of the Von-Frey hair has been checked. Needed force (in gram force units) was measured each time and was recorded for every checking. This test was repeated 5 times for each mouse consecutively.
This procedure was repeated for all the three groups. The next checking point was 3 hours after administration, where the last withdrawal thresholds measurements were performed on the next morning, on day 9, which was 24 hours after administration.
Morphine was utilized as a positive control where group no. 1 mice received morphine (dissolved in a saline solution (0.9%) and injected subcutaneously) as an analgesic agent, prior to the mechanical sensitivity tests.
The tests described in this example are complicated and depend on numerous factors. Accordingly, results above 10.0 gram force (marked with an asterisk) were not included in the evaluation of the experimental data. In cases of exceptional results, an additional test was performed mouse (test 6) in order to assure the exceptional result.

The mark [1] stands for this setting: t = 1 h after 5 mg/Kg, * values excluded.
Where [2] appears, read: t = 3 h after 5 mg/Kg, * values excluded.
The mark [3] stands for this setting: t = 24 h after 5 mg/Kg, * values excluded.

For `[2H]C([2H])([2H])C1=C[C@H]2c3c(O)cc(CCCCC)cc3OC(C)(C)[C@@H]2CC1([2H])[2H]` [9-CD3-(8-D2)-THC], the “Withdrawal test, test 1” value (t = 1 h after 5 mg/Kg single dose (oral gavage; morphine s.c.), * values >10.0 excluded from evaluation) was 4.7 gram force and 4.8 gram force and 6.0 gram force (2×) and 5.0 gram force and 4.5 gram force and 6.1 gram force and 7.1 gram force. For the same molecule, where the note is “t = 1 h after 5 mg/Kg”, the “Withdrawal test, All group average” value is 5.68 gram force; the “Withdrawal test, Average” value was 4.54 gram force and 6.14 gram force and 6.76 gram force and 5.24 gram force and 5.64 gram force and 4.88 gram force and 6.16 gram force and 6.06 gram force; the “Withdrawal test, test 4” value is 4.3 gram force and 4.5 gram force and 5.9 gram force and 6.7 gram force and 7.1 gram force and 4.7 gram force and 5.3 gram force and 4.2 gram force; the “Withdrawal test, test 5” value was 5.4 gram force and 8.7 gram force and 7.7 gram force and 5.2 gram force and 4.3 gram force and 4.7 gram force and 4.5 gram force and 8.5 gram force. In addition, under setting [1], the “Withdrawal test, test 2” value was 4.1 gram force and 5.8 gram force and 6.5 gram force and 4.0 gram force and 4.8 gram force and 4.6 gram force and 8.9 gram force and 5.6 gram force; the “Withdrawal test, test 3” value is 4.2 gram force and 6.9 gram force and 7.7 gram force and 5.3 gram force and 7.5 gram force and 4.3 gram force and 6.1 gram force and 4.9 gram force. Also, under “t = 3 h after 5 mg/Kg”, the “Withdrawal test, All group average” value came to 5.67 gram force; the “Withdrawal test, Average” value is 5.16 gram force and 6.42 gram force and 4.72 gram force and 6.08 gram force (2×) and 5.64 gram force and 5.92 gram force and 5.30 gram force; the “Withdrawal test, test 2” value is 5.9 gram force and 5.4 gram force and 5.0 gram force and 5.1 gram force (2×) and 9.2 gram force and 7.2 gram force and 6.5 gram force; the “Withdrawal test, test 4” value was 4.7 gram force and 9.2 gram force and 4.3 gram force and 5.9 gram force and 6.2 gram force and 6.6 gram force and 5.2 gram force and 4.6 gram force. Where the note is “t = 3 h after 5 mg/Kg”, the “Withdrawal test, test 5” value is 5.8 gram force and 6.7 gram force and 4.0 gram force (2×) and 6.4 gram force and 4.5 gram force and 4.8 gram force and 5.3 gram force; the “Withdrawal test, test 6” value is 4.1 gram force and 4.9 gram force (2×) and 4.3 gram force. Also, under setting [2], the “Withdrawal test, test 1” value was 4.6 gram force and 4.4 gram force (2×) and 4.7 gram force and 6.9 gram force and 8.2 gram force and 7.6 gram force and 4.5 gram force; the “Withdrawal test, test 3” value was 4.8 gram force and 6.4 gram force and 5.6 gram force (3×) and *12.8 gram force and 4.7 gram force and 4.9 gram force. Where the note is “t = 24 h after 5 mg/Kg”, the “Withdrawal test, All group average” value amounted to 5.28 gram force; the “Withdrawal test, Average” value was 4.70 gram force and 5.96 gram force and 4.56 gram force and 6.33 gram force and 4.98 gram force and 5.32 gram force and 4.80 gram force and 5.56 gram force; the “Withdrawal test, test 1” value is 6.0 gram force and 7.5 gram force and 4.0 gram force and 7.6 gram force and 5.0 gram force and 4.4 gram force and 4.9 gram force and 4.5 gram force; the “Withdrawal test, test 2” value is 4.6 gram force and 6.0 gram force and 4.0 gram force and 7.5 gram force and 6.5 gram force and 5.3 gram force and 5.7 gram force and 5.0 gram force. Further, for the setting “t = 24 h after 5 mg/Kg”, the “Withdrawal test, test 3” value is 4.6 gram force and 4.2 gram force and 4.0 gram force (2×) and 5.6 gram force and 5.4 gram force and 5.3 gram force and 6.8 gram force; the “Withdrawal test, test 6” value is 4.5 gram force. The “Withdrawal test, Change from b.l.” value (t = 24 h after 5 mg/Kg, group average vs baseline) is listed as −2.6%. Moreover, under setting [3], the “Withdrawal test, test 4” value was 4.3 gram force (2×) and 4.0 gram force and 6.8 gram force (2×) and *10.3 gram force and 4.1 gram force and 5.2 gram force; the “Withdrawal test, test 5” value is 4.0 gram force (3×) and 8.1 gram force and 4.6 gram force and 5.1 gram force and 4.7 gram force and 6.3 gram force.

The values above are taken from US20230331690A1, “THC DERIVATIVES, ORAL DOSAGE FORMS COMPRISING SAME, USES THEREOF FOR TREATING DISEASES AND DISORDERS AND SYNTHESIS THEREOF” (BAR-ILAN UNIVERSITY, priority 2020, published 2023).
